Source: patent publication US20070128217A1 (priority 2003, published 2007)

How the values were obtained:
[1] = test system: antibodies in sera from SARS patients (sera 1a, 1b, 2, 6, 37, 62, London, SARS-yellow, SARS-green); type: binding, human; parameters: Binding of serum 6 to linear peptides of protein X1 of SARS-CoV Urbani / Binding of serum 37 to linear peptides of protein X1 of SARS-CoV Urbani / Binding of serum 6 to looped/cyclic peptide (PEPSCAN-ELISA) / Binding of serum 37 to looped/cyclic peptide (PEPSCAN-ELISA) / Binding of serum 37 to looped/cyclic peptides of protein X1 of SARS-CoV Urbani / Binding of serum 6 to linear peptides of protein X2 / Binding of serum 37 to linear peptides of protein X2 / Binding of serum 37 to looped/cyclic peptides of protein X2 of SARS-CoV Urbani / Binding of serum 6 to linear peptides of protein M of SARS-CoV Urbani / Binding of serum 37 to linear peptides of protein M of SARS-CoV Urbani / Binding of serum 6 to looped/cyclic peptides of protein M of SARS-CoV Urbani / Binding of serum 37 to looped/cyclic peptides of protein M of SARS-CoV Urbani / Binding of serum 6 to linear peptides of protein X3 of SARS-CoV Urbani / Binding of serum 37 to linear peptides of protein X3 of SARS-CoV Urbani / Binding of serum 37 to looped/cyclic peptides of protein X3 of SARS-CoV Urbani / Binding of serum 6 to linear peptides of protein X4 of SARS-CoV Urbani / Binding of serum 37 to linear peptides of protein X4 of SARS-CoV Urbani / Binding of serum 37 to looped/cyclic peptides of protein X4 of SARS-CoV Urbani / Binding of serum 6 to linear peptides of protein X5 of SARS-CoV Urbani / Binding of serum 37 to linear peptides of protein X5 of SARS-CoV Urbani / Binding of serum 37 to looped/cyclic peptides of protein X5 of SARS-CoV Urbani / Binding of serum 6 to linear peptides of protein N of SARS-CoV Urbani / Binding of serum 37 to linear peptides of protein N of SARS-CoV Urbani / Binding of serum 6 to linear peptide (PEPSCAN-ELISA) / Binding of serum 1a to looped/cyclic peptides of protein N of SARS-CoV Urbani / Binding of serum 1b to looped/cyclic peptides of protein N of SARS-CoV Urbani / Binding of serum 2 to looped/cyclic peptides of protein N of SARS-CoV Urbani / Binding of serum 6 to looped/cyclic peptides of protein N of SARS-CoV Urbani / Binding of serum 37 to looped/cyclic peptides of protein N of SARS-CoV Urbani / Binding of serum 62 to looped/cyclic peptides of protein N of SARS-CoV Urbani / Binding of serum London to looped/cyclic peptides of protein N of SARS-CoV Urbani / Binding of serum SARS-green to looped/cyclic peptides of protein N of SARS-CoV Urbani: unit not given here
[2] = test system: control sera (pooled serum of ten healthy LUMC hospital workers; commercial negative donor pooled serum from the Dutch bloodbank); type: binding, human; parameters: Binding of Control serum LUMC to linear peptides / Binding of Control serum Blood-bank to linear peptides / Binding of Control serum LUMC to looped peptides / Binding of Control Serum Blood-Bank to Looped peptides / Binding of Control serum LUMC to linear peptides of the protein M of SARS-CoV Urbani / Binding of Control serum Blood-bank to linear peptides of the protein M of SARS-CoV Urbani / Binding of Control serum LUMC to looped peptides of the protein M of SARS-CoV Urbani / Binding of Control Serum Blood-Bank to Looped peptides of the protein M of SARS-CoV Urbani: unit not given here
[3] = test system: rabbit serum obtained by immunizing a rabbit with the SARS-CoV strain Frankfurt 1; type: binding; parameters: Binding of a rabbit serum to linear peptides / Binding of a rabbit serum to looped peptides / Rabbit serum linear peptides / Rabbit serum looped peptides / Binding of a rabbit serum to linear peptides of protein N of SARS-CoV Urbani (Rabbit serum linear peptides) / Binding of a rabbit serum to looped/cyclic peptides of protein N of SARS-CoV Urbani (Rabbit serum looped peptides): unit not given here

With QELYSPLFLIVAALV the “Binding of serum 1a to linear peptides of protein X4 of SARS-CoV Urbani” value [1] was 0.7, the “Binding of serum 1a to looped/cyclic peptides of protein X4 of SARS-CoV Urbani” value [1] was 0.6 and the “Binding of serum 1b to linear peptides of protein X4 of SARS-CoV Urbani” value [1] was 0.5. The “Binding of serum 1b to looped/cyclic peptides of protein X4 of SARS-CoV Urbani” value [1] was 0.4, the “Binding of serum 2 to linear peptides of protein X4 of SARS-CoV Urbani” value [1] was 0.8 and the “Binding of serum 2 to looped/cyclic peptides of protein X4 of SARS-CoV Urbani” value [1] was 0.6. For the same sequence, the “Binding of serum 6 to linear peptides of protein X4 of SARS-CoV Urbani” value [1] was 0.6, the “Binding of serum 6 to looped/cyclic peptides of protein X4 of SARS-CoV Urbani” value [1] was 0.3 and the “Binding of serum 37 to linear peptides of protein X4 of SARS-CoV Urbani” value [1] was 0.7. The “Binding of serum 37 to looped/cyclic peptides of protein X4 of SARS-CoV Urbani” value [1] was 0.6, the “Binding of serum 62 to linear peptides of protein X4 of SARS-CoV Urbani” value [1] was 0.7 and the “Binding of serum 62 to looped/cyclic peptides of protein X4 of SARS-CoV Urbani” value [1] was 0.6. The “Binding of serum London to linear peptides of protein X4 of SARS-CoV Urbani” value [1] was 0.7, the “Binding of serum London to looped/cyclic peptides of protein X4 of SARS-CoV Urbani” value [1] was 0.3 and the “Binding of serum SARS-green to linear peptides of protein X4 of SARS-CoV Urbani” value [1] was 0.5. The “Binding of serum SARS-green to looped/cyclic peptides of protein X4 of SARS-CoV Urbani” value [1] was 0.6, the “Binding of serum SARS-yellow to linear peptides of protein X4 of SARS-CoV Urbani” value [1] was 0.2 and the “Binding of serum SARS-yellow to looped/cyclic peptides of protein X4 of SARS-CoV Urbani” value [1] was 0.5. The “Binding of Control Serum Blood-Bank to Looped peptides” value [2] was 0.7, the “Binding of Control serum Blood-bank to linear peptides” value [2] was 0.6 and the “Binding of Control serum LUMC to linear peptides” value [2] was 0.6. The “Binding of Control serum LUMC to looped peptides” value [2] was 0.7, the “Rabbit serum linear peptides” value [3] was 0.4 and the “Rabbit serum looped peptides” value [3] was 0.5.

In the case of QFAYSNRNRFLYIIK, the “Binding of serum 1a to linear peptides of protein M of SARS-CoV Urbani” value [1] is reported as 0.7, the “Binding of serum 1b to linear peptides of protein M of SARS-CoV Urbani” value [1] is reported as 0.6 and the “Binding of serum 2 to linear peptides of protein M of SARS-CoV Urbani” value [1] is reported as 0.5. The “Binding of serum 37 to linear peptides of protein M of SARS-CoV Urbani” value [1] was 0.4, the “Binding of serum 62 to linear peptides of protein M of SARS-CoV Urbani” value [1] was 0.9 and the “Binding of serum London to linear peptides of protein M of SARS-CoV Urbani” value [1] was 0.4. The “Binding of serum SARS-green to linear peptides of protein M of SARS-CoV Urbani” value [1] was 0.5, the “Binding of serum SARS-yellow to linear peptides of protein M of SARS-CoV Urbani” value [1] was 0.3 and the “Recognition of the peptide by sera of SARS-CoV infected individuals, and form (linear, looped/cyclic) in which it is recognized” value [1] was “recognized in looped/cyclic form”. The “Binding of Control Serum Blood-Bank to Looped peptides of the protein M of SARS-CoV Urbani” value [2] was 0.6, the “Binding of Control serum Blood-bank to linear peptides of the protein M of SARS-CoV Urbani” value [2] was 0.6 and the “Binding of Control serum LUMC to linear peptides of the protein M of SARS-CoV Urbani” value [2] was 0.8. The “Binding of Control serum LUMC to looped peptides of the protein M of SARS-CoV Urbani” value [2] was 0.8, the “Rabbit serum linear peptides” value [3] was 0.4 and the “Rabbit serum looped peptides” value [3] was 1.2.

In the case of QFMMSRRRLLACLCK, the “Binding of serum 1a to linear peptides of protein X2” value [1] is reported as 0.7, the “Binding of serum 1a to looped/cyclic peptides of protein X2 of SARS-CoV Urbani” value [1] is reported as 0.4 and the “Binding of serum 1b to linear peptides of protein X2” value [1] is reported as 0.5. For the same sequence, the “Binding of serum 1b to looped/cyclic peptides of protein X2 of SARS-CoV Urbani” value [1] was 0.5, the “Binding of serum 2 to linear peptides of protein X2” value [1] was 0.5 and the “Binding of serum 2 to looped/cyclic peptides of protein X2 of SARS-CoV Urbani” value [1] was 0.5. The “Binding of serum 6 to linear peptides of protein X2” value [1] was 0.6, the “Binding of serum 6 to looped/cyclic peptides of protein X2 of SARS-CoV Urbani” value [1] was 0.1 and the “Binding of serum 37 to linear peptides of protein X2” value [1] was 0.5. The “Binding of serum 37 to looped/cyclic peptides of protein X2 of SARS-CoV Urbani” value [1] was 0.4, the “Binding of serum 62 to linear peptides of protein X2” value [1] was 0.6 and the “Binding of serum 62 to looped/cyclic peptides of protein X2 of SARS-CoV Urbani” value [1] was 0.5. The “Binding of serum London to linear peptides of protein X2” value [1] was 0.6, the “Binding of serum London to looped/cyclic peptides of protein X2 of SARS-CoV Urbani” value [1] was 0.2 and the “Binding of serum SARS-green to linear peptides of protein X2” value [1] was 0.4. For the same sequence, the “Binding of serum SARS-green to looped/cyclic peptides of protein X2 of SARS-CoV Urbani” value [1] was 0.4, the “Binding of serum SARS-yellow to linear peptides of protein X2” value [1] was 0.4 and the “Binding of serum SARS-yellow to looped/cyclic peptides of protein X2 of SARS-CoV Urbani” value [1] was 0.3. The “Binding of Control Serum Blood-Bank to Looped peptides” value [2] was 0.3, the “Binding of Control serum Blood-bank to linear peptides” value [2] was 0.7 and the “Binding of Control serum LUMC to linear peptides” value [2] was 0.5. The “Binding of Control serum LUMC to looped peptides” value [2] was 0.4, the “Binding of a rabbit serum to linear peptides” value [3] was 0.5 and the “Binding of a rabbit serum to looped peptides” value [3] was 1.9.
